In US20100076005A1, “ISOCARBOSTYRIL ALKALOID DERIVATIVES HAVING ANTI-PROLIFERATIVE AND ANTI-MIGRATORY ACTIVITIES” (Unibioscreen SA, priority 2006, published 2010):

Tests used:
[1] = tested on: six human cancer cell lines (prostate, glioma, pancreas, colon, lung, and breast cancers); experiment: MTT test of overall cell growth, mean of six human cancer cell lines; type: cell-based; details: 72 hours of incubation, mean of the six human cancer cell lines, range of molar concentrations giving 50% inhibition of overall tumor cell growth
Procedure: MTT tests were performed in order to rapidly, i.e. within 5 days, measure the effect of compounds of this invention on the overall cell growth. The test measured the number of metabolically active living cells that were able to transform the yellow product 3-(4,5-dimethylthiazol-2-yl)-2,5-diphenyl tetrazolium bromide (herein referred as MTT) into the blue product formazan dye by mitochondrial reduction. The amount of formazan obtained at the end of the experiment, measured by means of a spectrophotometer, is directly proportional to the number of living cells.
Six human cancer cell lines described in table 7 were used in the following MTT tests. These cancer cell lines cover six histological cancer types, being prostate, glioma, pancreas, colon, lung, and breast cancers.
To perform the assay, cells were allowed to grow in 96-well micro-wells with a flat bottom with an amount of 100 μl of cell suspension per well with 1,000 to 4,000 cells/well depending on the cell type used. Each cell line was seeded in a well known MEM 10% serum culture medium.
The detailed experimental procedure was the following: after a 24-hour period of incubation at 37° C., the culture medium was replaced by 100 μl of fresh medium in which the tested compound was previously dissolved, at the following molar concentrations: 10^−9 M, 5.10^−9 M, […], 10^−7 M, 5.10^−7 M, 10^−6 M, 5.10^−6 M, and […]. Each experiment was repeated 6 times.
After 72 hours of incubation at 37° C. with (experimental conditions) or without (control condition) the compound to be tested, the medium was replaced by 100 μl MTT dissolved in RPMI (1640 without phenol red) at a concentration of 1 mg/ml. The micro-wells were subsequently incubated during 3 hours at 37° C. and centrifuged at 400 g during 10 minutes. MTT was removed and formazan crystals formed were dissolved in 100 μl DMSO. The micro-wells were shaken for 5 minutes and read on a spectrophotometer at wavelengths of 570 nm (maximum formazan absorbance) and 630 nm (background noise).
For each experimental condition, the mean optical density was calculated, allowing the determination of the percentage of remaining living cells in comparison to the control.

in vivo = details: mouse, maximum tolerated dose, single intravenous dose, healthy mice, survival and weights recorded up to 14 days
Procedure: The maximum tolerated dose (herein after MTD) is defined as the maximum amount of a given drug which can be administered acutely (i.e. in one intraperitoneal, intravenous, subcutaneous or oral single dose) to healthy animals, i.e. animals not grafted with tumors. In this assay, compounds were administered intravenously. The survival times and weights of the animals were recorded up to 14 days post injection. Five different doses of each compound were used for the determination of the MTD index. Each experimental group comprised 3 mice for the determination of the MTD (expressed in mg/kg).

[2] = tested on: U-373MG (apoptosis-sensitive cancer cells); experiment: Cellular imaging (computer-assisted phase-contrast microscopy): cell migration and global growth ratio; type: cell-based, human; details: 100 nM; for Ratio GGRtreated cells/GGRcontrol cells: 72 h, global growth ratio; for effect on cell migration: filmed for 72 h
Procedure: (§1) A cellular imaging approach (Debeir et al., Cytometry 60:29-40, 2004; Debeir et al., IEEE Trans Med Imaging 24:697-711, 2005) was used to investigate whether the isocarbostyril alkaloid derivatives of the present invention were able to impair cell proliferation and cell migration in apoptosis-sensitive (U-373MG—see Table 7) as well as apoptosis-resistant (PC3—see Table 7) cancer cells. Cellular imaging relied on the use of computer-assisted phase-contrast microscopy making possible to film the behavior of living cells in culture dishes for several days.
(§2) Cells were seeded in 25-cm^2 at a low density, treated or not with the compounds of the present invention (at a concentration of 100 nM) and filmed thereafter for a period of 72 h. The analysis of the films was performed by two operators, working independently. The effect on cell migration was characterized as +++ (high effect: cell migration of most cells is drastically altered for most of the duration of the film), ++ (medium effect: compound altering cell migration of an important proportion of the cells although less drastically), + (low effect: compound affecting cell migration of a small part of the cell population, or only for a limited part of the 72 h incubation), − (no effect: as compared to the control conditions, no difference is observed). The effect on the overall growth was measured by counting the number of cells on the first (Oh) and the last image (72 h) of each film. The global growth ratio (GGR) was then deduced by dividing the number of cells on the last image by the number of cells on the first image. The ratio GGRtreated cells/GGRcontrol cells, was further calculated thereby obtaining a value that describes the effect of compounds of the present invention on the overall cell growth.

[3] = tested on: PC3 (apoptosis-resistant cancer cells); experiment: as above; type: cell-based, human; details: PC3, 100 nM; for Ratio GGRtreated cells/GGRcontrol cells: 72 h, global growth ratio; for effect on cell migration: filmed for 72 h
Procedure: as §1, §2

SMILES: O=C1N[C@@H]2C(=C[C@H](O)[C@@H](O)[C@H]2OS(=O)(=O)[O-])c2cc3c(c(O)c21)OCO3.[Na+] [Compound 1, (2S,3R,4S,4aR)-2,3,7-trihydroxy-(1,3)dioxolo(4,5-j)-6-oxo-2,3,4,4a,5,6-hexahydrophenanthridin-4-yl sodium sulfate]
- IC50 [1]: 1 to 5 µM
- MTD at 14 days (in vivo): > 80 mg/kg

SMILES: CCOC(=O)COc1c2c(cc3c1C(=O)N[C@@H]1C3=C[C@H](OC(C)=O)C(OC(C)=O)[C@H]1OC(C)=O)OCO2 (stereo partly drawn) [Compound 2, ethyl ({(2S,3R,4S,4aR)-2,3,4-tris[(methylcarbonyl)oxy]-(1,3)dioxolo(4,5-j)-6-oxo-2,3,4,4a,5,6-hexahydrophenanthridin--7-yl}oxy)acetate]
- IC50 [1]: > 10 µM

SMILES: CCOC(=O)COc1c2c(cc3c1C(=O)N(CC(=O)OCC)[C@@H]1C3=C[C@H](OC(C)=O)C(OC(C)=O)[C@H]1OC(C)=O)OCO2 (stereo partly drawn) [Compound 3, ethyl [(2S,3R,4S,4aR)-2,3,4-tris[(methylcarbonyl)oxy]-(1,3)dioxolo(4,5-j)-7-(2-ethoxy-2-oxoethoxy)-6-oxo-2,3,4,4a,5,6-hexahydrophenanthridin--5(3H)-yl]acetate]
- IC50 [1]: > 10 µM

SMILES: CC(=O)O[C@@H]1[C@H](OC(C)=O)[C@@H](OC(C)=O)C=C2c3cc4c(c(O)c3C(=S)N[C@H]21)OCO4 [Compound 4, (2S,3R,4S,4aR)-7-hydroxy-(1,3)dioxolo(4,5-j)-6-thioxo-2,3,4,4a,5,6-hexahydrophenanthridin--2,3,4-triyl triacetate]
- IC50 [1]: 1 to 5 µM
- MTD at 14 days (in vivo): 40 mg/kg

SMILES: COC(=O)COc1c2c(cc3c1C(=O)N[C@@H]1C3=C[C@H](O)[C@@H](O)[C@H]1O)OCO2 [Compound 5, methyl {[(2S,3R,4S,4aR)-2,3,4-trihydroxy-(1,3)dioxolo(4,5-j)-6-oxo-3,4,4a,5-tetrahydrophenanthridin-6(2H)-7-yl]oxy}acetate]
- IC50 [1]: 5 to 10 µM

SMILES: O=C(O)COc1c2c(cc3c1C(=O)N[C@@H]1C3=C[C@H](O)[C@@H](O)[C@H]1O)OCO2 [Compound 6, {[(2S,3R,4S,4aR)-2,3,4-trihydroxy-(1,3)dioxolo(4,5-j)-6-oxo-3,4,4a,5-tetrahydrophenanthridin-6(2H)-7-yl]oxy}acetic acid]
- IC50 [1]: 5 to 10 µM

SMILES: CC(=O)O[C@@H]1[C@H](OC(C)=O)[C@@H](OC(C)=O)C=C2c3cc4c(c(OCc5ccc6ccccc6c5)c3C(=O)N[C@H]21)OCO4 [Compound 7, (2S,3R,4S,4aR)-7-[(2-naphthylmethoxy]-(1,3)dioxolo(4,5-j)-6-oxo-2,3,4,4a,5,6-hexahydrophenanthridin-2,3,4-triyl triacetate]
- IC50 [1]: 1 to 5 µM

SMILES: O=C1N[C@@H]2C(=C[C@H](O)[C@@H](O)[C@H]2O)c2cc3c(c(OCc4ccc5ccccc5c4)c21)OCO3 [Compound 8]
- IC50 [1]: 1 to 5 µM
- MTD at 14 days (in vivo): > 80 mg/kg

SMILES: O=C1c2c(cc3c(c2OCc2ccccc2)OCO3)C2=C[C@H](O)[C@@H](O)[C@@H](O)[C@@H]2N1Cc1ccccc1 [Compound 9, (2S,3R,4S,4aR)-2,3,4-trihydroxy-7-[benzyloxy]-5-benzyl-(1,3)dioxolo(4,5-j)-3,4,4a,5-tetrahydrophenanthridin-6(2H)-one]
- IC50 [1]: > 10 µM
- MTD at 14 days (in vivo): 40 mg/kg

SMILES: CC(=O)Oc1c2c(cc3c1C(=O)N[C@@H]1C3=C[C@H](OC(C)=O)[C@@H](O)[C@H]1O)OCO2 [Compound 10, (2S,3S,4S,4aR)-3,4-dihydroxy-(1,3)dioxolo(4,5-j)-6-oxo-2,3,4,4a,5,6-hexahydrophenanthridin--2,7-diyl diacetate]
- IC50 [1]: 0.1 to 0.5 µM
- Ratio GGRtreated cells/GGRcontrol cells [2]: 1.06
- effect on cell migration [2]: −
- Ratio GGRtreated cells/GGRcontrol cells [3]: 1.38
- effect on cell migration [3]: +
- MTD at 14 days (in vivo): > 80 mg/kg

SMILES: CC(=O)O[C@H]1C=C2c3cc4c(c(O)c3C(=O)N[C@H]2[C@H](O)[C@@H]1O)OCO4 [Compound 11, (2S,3S,4S,4aR)-3,4,7-trihydroxy-(1,3)dioxolo(4,5-j)-6-oxo-2,3,4,4a,5,6-hexahydrophenanthridin--2-yl acetate]
- IC50 [1]: 0.1 to 0.5 µM
- Ratio GGRtreated cells/GGRcontrol cells [2]: 0.42
- effect on cell migration [2]: ++
- Ratio GGRtreated cells/GGRcontrol cells [3]: 0.40
- effect on cell migration [3]: +++
- MTD at 14 days (in vivo): > 80 mg/kg

SMILES: O=C(O[C@H]1C=C2c3cc4c(c(O)c3C(=O)N[C@H]2[C@H](O)[C@@H]1O)OCO4)c1ccccc1 [Compound 13, (2S,3S,4S,4aR)-3,4,7-trihydroxy-(1,3)dioxolo(4,5-j)-6-oxo-2,3,4,4a,5,6-hexahydrophenanthridin--2-yl benzoate]
- IC50 [1]: 0.01 to 0.05 µM
- Ratio GGRtreated cells/GGRcontrol cells [2]: 0.45
- effect on cell migration [2]: ++
- Ratio GGRtreated cells/GGRcontrol cells [3]: 0.31
- effect on cell migration [3]: +++
- MTD at 14 days (in vivo): 10 mg/kg

SMILES: CCC(=O)O[C@H]1C=C2c3cc4c(c(O)c3C(=O)N[C@H]2[C@H](O)[C@@H]1O)OCO4 [Compound 19, (2S,3S,4S,4aR)-3,4,7-trihydroxy-(1,3)dioxolo(4,5-j)-6-oxo-2,3,4,4a,5,6-hexahydrophenanthridin-2-yl propionate]
- IC50 [1]: 0.01 to 0.05 µM
- MTD at 14 days (in vivo): 40 mg/kg

SMILES: CC(C)C(=O)O[C@H]1C=C2c3cc4c(c(O)c3C(=O)N[C@H]2[C@H](O)[C@@H]1O)OCO4 [Compound 20, (2S,3S,4S,4aR)-3,4,7-trihydroxy-(1,3)dioxolo(4,5-j)-6-oxo-2,3,4,4a,5,6-hexahydrophenanthridin-2-yl 2-methylpropanoate]
- IC50 [1]: 0.01 to 0.05 µM
- MTD at 14 days (in vivo): 40 mg/kg

SMILES: O=C1N[C@@H]2C(=C[C@H](O)[C@@H](O)[C@H]2O)c2cc3c(c(O)c21)OCO3 [narciclasine, reference compound]
- IC50 [1]: 0.01 to 0.05 µM
